Laboratory results: patent US20140120083A1, “TREATMENT OF CANCERS USING PI3 KINASE ISOFORM MODULATORS” (INFINITY PHARMACEUTICALS, INC., priority 2012, published 2014)
pIC50: −log10 of the molar value.

Tests used:
Format in all cases: biochemical
PI3K δ = PI3K δ (Homo sapiens, UniProt O00329); assay: In vitro IC50, PI3K δ; design: purchased Upstate
Source text: (§1) An exemplary system is PI 3-Kinase (human) HTRF™ Assay from Upstate.

PI3K γ = molecular target: T1, PI3K γ (Homo sapiens, UniProt P48736); assay: In vitro IC50, PI3K γ
T1 construct: purchased Sigma
T1 sequence (P48736 whole entry): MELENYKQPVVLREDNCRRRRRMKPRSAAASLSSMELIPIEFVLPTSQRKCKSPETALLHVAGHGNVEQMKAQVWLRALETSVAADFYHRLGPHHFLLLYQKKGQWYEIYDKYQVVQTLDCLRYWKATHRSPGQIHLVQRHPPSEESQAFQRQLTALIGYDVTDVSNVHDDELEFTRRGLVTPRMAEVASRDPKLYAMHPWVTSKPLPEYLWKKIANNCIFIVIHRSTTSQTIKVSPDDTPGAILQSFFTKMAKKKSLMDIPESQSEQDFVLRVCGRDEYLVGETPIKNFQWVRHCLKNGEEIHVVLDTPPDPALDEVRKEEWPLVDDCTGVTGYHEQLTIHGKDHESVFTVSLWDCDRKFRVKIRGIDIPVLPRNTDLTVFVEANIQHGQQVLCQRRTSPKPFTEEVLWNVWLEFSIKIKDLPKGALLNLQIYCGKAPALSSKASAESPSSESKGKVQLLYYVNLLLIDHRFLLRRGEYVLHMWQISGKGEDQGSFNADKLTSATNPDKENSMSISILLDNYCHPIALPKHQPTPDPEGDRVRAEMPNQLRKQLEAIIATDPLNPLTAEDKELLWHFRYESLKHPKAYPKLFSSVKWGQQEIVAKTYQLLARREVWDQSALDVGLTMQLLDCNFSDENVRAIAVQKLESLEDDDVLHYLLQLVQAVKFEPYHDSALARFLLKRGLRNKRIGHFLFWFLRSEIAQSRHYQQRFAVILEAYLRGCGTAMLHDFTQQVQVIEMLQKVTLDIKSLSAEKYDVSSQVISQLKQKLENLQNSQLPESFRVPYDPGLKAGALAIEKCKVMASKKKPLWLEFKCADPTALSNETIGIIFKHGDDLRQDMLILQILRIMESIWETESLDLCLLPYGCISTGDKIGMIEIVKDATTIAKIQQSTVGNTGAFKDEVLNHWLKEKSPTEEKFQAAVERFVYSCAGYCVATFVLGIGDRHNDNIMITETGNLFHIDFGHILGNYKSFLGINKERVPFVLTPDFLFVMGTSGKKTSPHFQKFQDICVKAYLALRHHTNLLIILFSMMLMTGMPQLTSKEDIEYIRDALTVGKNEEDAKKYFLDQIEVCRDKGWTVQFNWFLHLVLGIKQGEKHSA
Source text: as §1

PI3K α = molecular target: T2, PI3K α (Homo sapiens, UniProt P42336); assay: In vitro IC50, PI3K α
T2 construct: purchased Upstate
T2 sequence (P42336 whole entry): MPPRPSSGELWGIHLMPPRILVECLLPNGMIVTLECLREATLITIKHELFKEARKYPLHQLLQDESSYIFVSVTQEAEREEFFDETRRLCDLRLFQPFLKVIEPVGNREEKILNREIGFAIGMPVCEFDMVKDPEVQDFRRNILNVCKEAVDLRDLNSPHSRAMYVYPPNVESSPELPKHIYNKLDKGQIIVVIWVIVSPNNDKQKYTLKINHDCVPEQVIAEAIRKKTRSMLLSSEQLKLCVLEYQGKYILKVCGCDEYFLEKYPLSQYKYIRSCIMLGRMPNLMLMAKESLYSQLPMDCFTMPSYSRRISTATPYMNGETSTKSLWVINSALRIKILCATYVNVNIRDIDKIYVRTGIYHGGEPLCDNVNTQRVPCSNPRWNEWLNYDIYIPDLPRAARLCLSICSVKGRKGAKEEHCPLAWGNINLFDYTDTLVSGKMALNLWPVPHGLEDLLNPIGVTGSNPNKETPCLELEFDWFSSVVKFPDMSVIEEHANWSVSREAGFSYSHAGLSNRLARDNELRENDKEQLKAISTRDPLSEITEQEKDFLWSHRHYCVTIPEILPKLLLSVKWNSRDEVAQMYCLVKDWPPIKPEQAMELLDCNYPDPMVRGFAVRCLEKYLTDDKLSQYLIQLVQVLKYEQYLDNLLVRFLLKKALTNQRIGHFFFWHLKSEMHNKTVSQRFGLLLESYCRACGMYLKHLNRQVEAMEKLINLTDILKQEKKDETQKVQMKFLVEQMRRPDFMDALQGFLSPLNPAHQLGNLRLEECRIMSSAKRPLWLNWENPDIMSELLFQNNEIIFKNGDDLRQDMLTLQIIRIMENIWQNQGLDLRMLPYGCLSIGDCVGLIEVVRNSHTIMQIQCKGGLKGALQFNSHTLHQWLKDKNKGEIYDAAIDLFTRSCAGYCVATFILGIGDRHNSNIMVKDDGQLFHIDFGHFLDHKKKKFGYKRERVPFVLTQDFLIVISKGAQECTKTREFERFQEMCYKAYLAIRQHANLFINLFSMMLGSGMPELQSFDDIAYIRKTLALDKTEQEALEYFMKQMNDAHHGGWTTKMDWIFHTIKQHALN
T2 sequence (P27986 whole entry partner): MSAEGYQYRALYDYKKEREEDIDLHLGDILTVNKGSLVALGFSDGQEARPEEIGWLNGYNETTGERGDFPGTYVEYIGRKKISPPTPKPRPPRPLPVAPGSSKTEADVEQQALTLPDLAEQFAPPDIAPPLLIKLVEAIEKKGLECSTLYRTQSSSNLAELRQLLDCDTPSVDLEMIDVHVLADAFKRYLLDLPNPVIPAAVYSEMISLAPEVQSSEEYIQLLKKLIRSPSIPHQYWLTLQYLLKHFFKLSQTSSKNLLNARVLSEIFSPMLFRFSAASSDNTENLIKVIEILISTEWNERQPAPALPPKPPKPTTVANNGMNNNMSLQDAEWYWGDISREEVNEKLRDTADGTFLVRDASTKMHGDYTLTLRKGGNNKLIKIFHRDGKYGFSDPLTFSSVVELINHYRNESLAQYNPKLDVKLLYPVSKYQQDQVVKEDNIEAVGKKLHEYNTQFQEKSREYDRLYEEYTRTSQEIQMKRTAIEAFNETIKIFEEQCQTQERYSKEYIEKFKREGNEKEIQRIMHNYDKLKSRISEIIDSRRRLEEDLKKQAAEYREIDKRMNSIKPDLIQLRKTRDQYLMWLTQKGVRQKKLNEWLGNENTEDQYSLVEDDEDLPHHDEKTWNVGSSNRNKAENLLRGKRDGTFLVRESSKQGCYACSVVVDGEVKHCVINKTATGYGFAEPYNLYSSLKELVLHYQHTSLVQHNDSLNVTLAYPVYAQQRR
Source text: as §1

Chain of PI3K δ (O00329 whole entry): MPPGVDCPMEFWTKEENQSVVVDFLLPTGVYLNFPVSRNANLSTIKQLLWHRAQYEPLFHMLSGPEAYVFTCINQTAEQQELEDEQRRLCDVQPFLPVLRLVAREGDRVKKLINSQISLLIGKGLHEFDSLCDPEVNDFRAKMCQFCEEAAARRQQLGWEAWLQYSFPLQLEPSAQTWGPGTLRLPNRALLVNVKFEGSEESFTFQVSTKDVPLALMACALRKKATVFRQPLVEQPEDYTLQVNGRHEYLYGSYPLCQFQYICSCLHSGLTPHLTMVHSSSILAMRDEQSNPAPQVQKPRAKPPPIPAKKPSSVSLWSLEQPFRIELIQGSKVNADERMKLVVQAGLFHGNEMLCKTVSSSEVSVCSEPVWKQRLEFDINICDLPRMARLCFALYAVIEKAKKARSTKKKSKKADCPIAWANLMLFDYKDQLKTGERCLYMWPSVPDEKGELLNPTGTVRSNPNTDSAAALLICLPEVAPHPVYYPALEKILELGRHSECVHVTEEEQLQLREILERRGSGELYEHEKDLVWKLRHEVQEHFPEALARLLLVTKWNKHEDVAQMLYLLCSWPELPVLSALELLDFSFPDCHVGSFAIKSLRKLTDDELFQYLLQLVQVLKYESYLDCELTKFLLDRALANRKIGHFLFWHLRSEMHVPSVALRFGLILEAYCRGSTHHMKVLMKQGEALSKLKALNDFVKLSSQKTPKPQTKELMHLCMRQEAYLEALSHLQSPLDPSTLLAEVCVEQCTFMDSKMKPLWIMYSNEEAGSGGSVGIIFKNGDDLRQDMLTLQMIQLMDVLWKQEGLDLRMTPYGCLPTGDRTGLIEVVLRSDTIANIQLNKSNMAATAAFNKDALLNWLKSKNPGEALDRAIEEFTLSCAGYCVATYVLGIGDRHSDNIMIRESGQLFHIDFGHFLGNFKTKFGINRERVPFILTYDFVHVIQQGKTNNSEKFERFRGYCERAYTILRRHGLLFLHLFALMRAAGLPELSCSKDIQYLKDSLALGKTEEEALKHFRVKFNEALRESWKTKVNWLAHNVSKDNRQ
Chain of PI3K δ (P27986 whole entry partner): as the sequence (P27986 whole entry partner) above

SMILES	pIC50 (PI3K δ)	pIC50 (PI3K γ)	pIC50 (PI3K α)
Cc1cccc2cc(Cn3cnc4c(N)ncnc43)n(-c3ccccc3F)c(=O)c12 [Compound 1]	> 5.00	< 5.00	–
Cc1cccc2cc(Cn3nc(C#CC4CC4)c4c(N)ncnc43)n(-c3ccccc3F)c(=O)c12 [Compound 4]	> 6.00	< 5.00	–
Cc1ccccc1-n1c(Cn2nc(I)c3c(N)ncnc32)cc2ccccc2c1=O [Compound 31]	> 6.00	> 7.00	< 5.00
Cc1ccccc1-n1c(Cn2nc(C#C[C@@H](C)O)c3c(N)ncnc32)cc2ccccc2c1=O [Compound 32]	> 6.00	–	< 5.00
Cc1ccccc1-n1c(Cn2nc(-c3cc(O)cc(F)c3)c3c(N)ncnc32)cc2ccccc2c1=O [Compound 33]	> 7.00	> 7.00	< 5.00
COc1ccc(-c2nn(Cc3cc4cccc(C)c4c(=O)n3-c3ccccc3F)c3ncnc(N)c23)cc1OC [Compound 47]	> 6.00	> 6.00	< 5.00
Cc1ccccc1-n1c(Cn2nc(-c3cccc(O)c3)c3c(N)ncnc32)cc2ccccc2c1=O [Compound 51]	> 7.00	> 6.00	< 5.00
Cc1cccnc1-n1c(Cn2nc(I)c3c(N)ncnc32)cc2ccccc2c1=O [Compound 92]	> 5.00	> 5.00	–
CC(C)n1c(Cn2nc(I)c3c(N)ncnc32)cc2cccc(F)c2c1=O [Compound 117]	> 5.00	–	–
CNC(=O)c1cccc(-c2nn(Cc3cc4cccc(C)c4c(=O)n3-c3ccccc3C)c3ncnc(N)c23)c1 [Compound 120]	> 5.00	–	–
CC(C)n1c(Cn2nc(I)c3c(N)ncnc32)cc2ccccc2c1=O [Compound 129]	> 5.00	–	–
Nc1ncnc2c1c(I)nn2Cc1cc2cccc(F)c2c(=O)n1-c1ccccc1F [Compound 132]	> 5.00	–	–
CC(C)n1c(Cn2nc(-c3cc(O)cc(F)c3)c3c(N)ncnc32)cc2cccc(F)c2c1=O [Compound 134]	> 7.00	–	–
CC(C)n1c(Cn2nc(-c3cccc(O)c3)c3c(N)ncnc32)cc2ccccc2c1=O [Compound 135]	> 7.00	–	–
CC(C)n1c(Cn2nc(-c3cc(O)cc(F)c3)c3c(N)ncnc32)cc2ccccc2c1=O [Compound 136]	> 7.00	–	–
CC(C)n1c(Cn2nc(-c3cccc(O)c3)c3c(N)ncnc32)cc2cccc(Cl)c2c1=O [Compound 137]	> 7.00	–	–
CC(C)n1c(Cn2nc(-c3cc(O)cc(F)c3)c3c(N)ncnc32)cc2cccc(Cl)c2c1=O [Compound 138]	> 7.00	–	–
Nc1ncnc2c1c(-c1cccc(O)c1)nn2Cc1cc2cccc(F)c2c(=O)n1-c1ccccc1F [Compound 143]	> 6.00	–	–
Nc1ncnc2c1c(-c1cc(O)cc(F)c1)nn2Cc1cc2cccc(F)c2c(=O)n1-c1ccccc1F [Compound 144]	> 7.00	–	–
CNC(=O)Nc1nc2ccc(-c3nn(Cc4cc5cccc(C)c5c(=O)n4-c4ccccc4C)c4ncnc(N)c34)cc2s1 [Compound 148]	> 7.00	> 7.00	> 7.00

SMILES	pIC50 (PI3K δ)	pIC50 (PI3K γ)	pIC50 (PI3K α)
Cc1cccc2cc([C@@H](C)Nc3ncnc4[nH]cnc34)n(-c3ccccc3)c(=O)c12 [Compound 195]	> 5.00	> 5.00	–
Cc1cccc2cc([C@H](C)Nc3ncnc4[nH]cnc34)n(-c3ccccc3)c(=O)c12 [Compound 196]	> 7.00	> 7.00	–
Cc1cccc2cc([C@@H](C)Nc3ncnc4[nH]cnc34)n(C3CC3)c(=O)c12 [Compound 199]	< 5.00	< 5.00	–
Cc1cccc2cc(C(C)Nc3ncnc4[nH]cnc34)n(-c3ccccc3F)c(=O)c12 (stereo not shown) [Compound 203]	–	–	> 5.00
CC(Nc1ncnc2[nH]cnc12)c1cc2ccccc2c(=O)n1C1CCN(C)CC1 (stereo not shown) [Compound 225]	> 6.00	–	–
Cc1cccc2cc(C(C)Nc3ncnc4[nH]cnc34)n(-c3cccc(F)c3)c(=O)c12 (stereo not shown) [Compound 229]	> 7.00	> 6.00	–
Cc1cccc2cc([C@H](C)Nc3ncnc4[nH]cnc34)n(C(C)C)c(=O)c12 [Compound 230]	> 7.00	> 7.00	–
Cc1cccc2cc(C(C)Nc3ncnc4[nH]cnc34)n(C3CCCC3)c(=O)c12 (stereo not shown) [Compound 231]	> 7.00	> 7.00	–
Cc1cccc2cc(C(C)Nc3ncnc4[nH]cnc34)n(CCN3CCOCC3)c(=O)c12 (stereo not shown) [Compound 232]	> 7.00	> 5.00	–
Cc1cccc2cc(C(C)Nc3ncnc4[nH]cnc34)n(CCN3CCCC3)c(=O)c12 (stereo not shown) [Compound 233]	> 7.00	< 5.00	–
Cc1cccc2cc(C(C)Nc3ncnc4[nH]cnc34)n(C3CCOCC3)c(=O)c12 (stereo not shown) [Compound 234]	> 7.00	> 6.00	–
Cc1cccc2cc(Cn3nc(-c4ccc5nc(N)oc5c4)c4c(N)ncnc43)n(-c3ccccc3)c(=O)c12 [Compound 236]	> 6.00	> 6.00	–
Cc1cccc2cc(Cn3nc(-c4ccc5nc(N)cn5c4)c4c(N)ncnc43)n(-c3ccccc3)c(=O)c12 [Compound 239]	> 6.00	> 5.00	< 5.00
Cc1cccc2cc([C@H](C)NC(=O)c3cnn4ccccc34)n(-c3ccccc3)c(=O)c12 [Compound 241]	< 5.00	> 5.00	< 5.00
Cc1nc2c(N[C@@H](C)c3cc4cccc(C)c4c(=O)n3-c3ccccc3)ncnc2[nH]1 [Compound 242]	> 5.00	> 5.00	< 5.00
Cc1cccc2cc([C@H](C)Nc3nc(F)nc4[nH]cnc34)n(-c3ccccc3)c(=O)c12 [Compound 245]	> 7.00	> 7.00	> 5.00
Cc1ccccc1-n1c(Cn2nc(C(=O)O)c3c(N)ncnc32)cc2cccc(C)c2c1=O [Compound 297]	> 6.00	–	–
Cc1cccc2cc(Cn3nc(-c4ccc5nc(N)[nH]c5c4)c4c(N)ncnc43)n(-c3ccccc3)c(=O)c12 [Compound 302]	> 7.00	> 7.00	–
CNC(=O)c1nn(Cc2cc3cccc(C)c3c(=O)n2-c2ccccc2C)c2ncnc(N)c12 [Compound 305]	> 5.00	> 5.00	–
Cc1cccc2cc(Cn3nc(C(N)=O)c4c(N)ncnc43)n(-c3ccccc3)c(=O)c12 [Compound 307]	> 6.00	> 5.00	–

Continued, values first:

pIC50 (PI3K δ)	pIC50 (PI3K γ)	pIC50 (PI3K α)	SMILES
> 7.00	> 6.00	–	Cc1cccc2cc(Cn3nc(I)c4c(N)ncnc43)n(-c3ccccc3F)c(=O)c12 [Compound 2]
> 6.00	> 6.00	< 5.00	Cc1cccnc1-n1c(Cn2nc(I)c3c(N)ncnc32)cc2cccc(C)c2c1=O [Compound 15]
> 7.00	> 7.00	< 5.00	Cc1cccnc1-n1c(Cn2nc(-c3cc(O)cc(F)c3)c3c(N)ncnc32)cc2cccc(C)c2c1=O [Compound 16]
> 6.00	> 5.00	< 5.00	Cc1cccnc1-n1c(Cn2nc(Br)c3c(N)ncnc32)cc2cccc(C)c2c1=O [Compound 17]
> 6.00	< 5.00	< 5.00	Cc1cccnc1-n1c(Cn2nc(Cl)c3c(N)ncnc32)cc2cccc(C)c2c1=O [Compound 18]
> 7.00	> 7.00	< 5.00	Cc1ccccc1-n1c(Cn2nc(Br)c3c(N)ncnc32)cc2cccc(C)c2c1=O [Compound 19]
> 7.00	> 6.00	< 5.00	Cc1ccccc1-n1c(Cn2nc(Cl)c3c(N)ncnc32)cc2cccc(C)c2c1=O [Compound 20]
> 7.00	> 7.00	< 5.00	Cc1ccccc1-n1c(Cn2nc(-c3ccc(O)c(F)c3)c3c(N)ncnc32)cc2cccc(C)c2c1=O [Compound 30]
> 6.00	> 7.00	< 5.00	COc1ccc(-c2nn(Cc3cc4cccc(C)c4c(=O)n3-c3ccccc3C)c3ncnc(N)c23)cc1 [Compound 45]
> 7.00	> 7.00	< 5.00	Cc1ccccc1-n1c(Cn2nc(-c3cnc4[nH]ccc4c3)c3c(N)ncnc32)cc2cccc(C)c2c1=O [Compound 48]
> 6.00	> 6.00	< 5.00	Cc1ccccc1-n1c(Cn2nc(-c3ccc(Cl)cc3)c3c(N)ncnc32)cc2cccc(C)c2c1=O [Compound 49]
> 7.00	> 7.00	< 5.00	Cc1ccccc1-n1c(Cn2nc(-c3ccc4cc[nH]c4c3)c3c(N)ncnc32)cc2cccc(C)c2c1=O [Compound 50]
> 5.00	–	–	Cc1ccccc1-n1c(Cn2nc(-c3ccc(CN)cc3)c3c(N)ncnc32)cc2cccc(C)c2c1=O [Compound 118]
> 7.00	–	–	Cc1cccc2cc(Cn3nc(-c4cccc(O)c4)c4c(N)ncnc43)n(C)c(=O)c12 [Compound 124]
> 7.00	–	–	Cc1cccc2cc(Cn3nc(-c4cc(O)cc(F)c4)c4c(N)ncnc43)n(C)c(=O)c12 [Compound 125]
> 7.00	–	–	CCn1c(Cn2nc(-c3cccc(O)c3)c3c(N)ncnc32)cc2cccc(C)c2c1=O [Compound 126]
> 7.00	–	–	Cc1cccc2cc(Cn3nc(-c4cc(O)cc(F)c4)c4c(N)ncnc43)n(C3CCOCC3)c(=O)c12 [Compound 128]
> 7.00	–	–	Nc1ncnc2c1c(I)nn2Cc1cc2cccc(Cl)c2c(=O)n1C1CC1 [Compound 139]
> 7.00	–	–	Nc1ncnc2c1c(-c1cccc(O)c1)nn2Cc1cc2cccc(Cl)c2c(=O)n1C1CC1 [Compound 141]
> 6.00	–	–	Cc1cccc2cc(Cn3nc(-c4cn[nH]c4)c4c(N)ncnc43)n(C3CCN(C)CC3)c(=O)c12 [Compound 226]
> 7.00	> 6.00	–	C=Cc1nn(Cc2cc3cccc(C)c3c(=O)n2-c2ccccc2)c2ncnc(N)c12 [Compound 301]
> 7.00	> 5.00	–	CCc1nn(Cc2cc3cccc(C)c3c(=O)n2-c2ccccc2)c2ncnc(N)c12 [Compound 303]
> 7.00	> 7.00	–	Cc1ccccc1-n1c(Cn2nc(C(F)F)c3c(N)ncnc32)cc2cccc(C)c2c1=O [Compound 306]
